Test results as given in ChEMBL document CHEMBL5338747, “Discovery of Quaternized Pyridine-Thiazole-Pleuromutilin Derivatives with Broad-Spectrum Antibacterial and Potent Anti-MRSA Activity” (J Med Chem, 2023).
Values after ≈ are worked out from the molar mass of the structure shown.

Tests used:
[1] = Cytotoxicity against human A549 cells assessed as reduction in cell viability measured after 48 hrs by CCK8 assay; format: toxicity, cell-based
[2] = tested on: Escherichia coli; experiment: Antibacterial activity against Escherichia coli CMCC 44103 assessed as inhibition of bacterial growth incubated for 24 hrs by broth microdilution method; format: functional
[3] = tested on: Escherichia coli; experiment: Antibacterial activity against Escherichia coli ATCC 25922 assessed as inhibition of bacterial growth incubated for 24 hrs by broth microdilution method; format: functional
[4] = tested on: Staphylococcus epidermidis; experiment: Antibacterial activity against methicillin-resistant Staphylococcus epidermidis ATCC 51625 assessed as inhibition of bacterial growth incubated for 24 hrs by broth microdilution method; format: functional
[5] = Cytotoxicity against human HEK293 cells assessed as reduction in cell viability measured after 48 hrs by CCK8 assay; format: toxicity, cell-based
[6] = tested on: Staphylococcus aureus; experiment: Antibacterial activity against methicillin-resistant Staphylococcus aureus ATCC 33591 assessed as inhibition of bacterial growth incubated for 24 hrs by broth microdilution method; format: functional
[7] = tested on: Staphylococcus aureus; experiment: Antibacterial activity against methicillin-resistant Staphylococcus aureus 575 assessed as inhibition of bacterial growth incubated for 24 hrs by broth microdilution method; format: functional
[8] = tested on: Staphylococcus aureus; experiment: Antibacterial activity against methicillin-resistant Staphylococcus aureus 596 assessed as inhibition of bacterial growth incubated for 24 hrs by broth microdilution method; format: functional
[9] = Cytotoxicity against human HepG2 cells assessed as reduction in cell viability measured after 48 hrs by CCK8 assay; format: toxicity, cell-based
[10] = tested on: Staphylococcus aureus; experiment: Antibacterial activity against methicillin-resistant Staphylococcus aureus 171 assessed as inhibition of bacterial growth incubated for 24 hrs by broth microdilution method; format: functional
[11] = tested on: Acinetobacter baumannii; experiment: Antibacterial activity against Acinetobacter baumannii ATCC 19606 assessed as inhibition of bacterial growth incubated for 24 hrs by broth microdilution method; format: functional
[12] = Aqueous solubility of the compound in physiological saline measured after 12 hrs by UV spectrophotometric analysis; format: physicochemical
[13] = tested on: Klebsiella pneumoniae; experiment: Antibacterial activity against multidrug-resistant Klebsiella pneumoniae 893 assessed as inhibition of bacterial growth incubated for 24 hrs by broth microdilution method; format: functional
[14] = tested on: Enterococcus; experiment: Antibacterial activity against vancomycin-resistant Enterococcus 80 assessed as inhibition of bacterial growth incubated for 24 hrs by broth microdilution method; format: functional
[15] = tested on: Staphylococcus aureus; experiment: Antibacterial activity against […] assessed as inhibition of bacterial growth incubated for 24 hrs by broth microdilution method; format: functional; settings: ATCC 29213
[16] = tested on: Staphylococcus aureus; experiment: Antibacterial activity against methicillin-resistant Staphylococcus aureus ATCC 43300 assessed as inhibition of bacterial growth incubated for 24 hrs by broth microdilution method; format: functional
[17] = tested on: Staphylococcus aureus; experiment: Antibacterial activity against methicillin-resistant Staphylococcus aureus 206 assessed as inhibition of bacterial growth incubated for 24 hrs by broth microdilution method; format: functional
[18] = tested on: Staphylococcus aureus; experiment: Antibacterial activity against methicillin-resistant Staphylococcus aureus 222 assessed as inhibition of bacterial growth incubated for 24 hrs by broth microdilution method; format: functional
[19] = tested on: Salmonella enterica; experiment: Antibacterial activity against Salmonella enterica ATCC 14028 assessed as inhibition of bacterial growth incubated for 24 hrs by broth microdilution method; format: functional
[20] = tested on: Acinetobacter baumannii; experiment: Antibacterial activity against carbapenem-resistant Acinetobacter baumannii 882 assessed as inhibition of bacterial growth incubated for 24 hrs by broth microdilution method; format: functional
[21] = tested on: Pseudomonas aeruginosa; experiment: Antibacterial activity against multidrug-resistant Pseudomonas aeruginosa 126 assessed as inhibition of bacterial growth incubated for 24 hrs by broth microdilution method; format: functional

Structure (SMILES) | MIC [2] [µg/mL] | MIC [3] [µg/mL] | MIC [4] [µg/mL] | MIC [6] [µg/mL] | MIC [11] [µg/mL] | solubility at 12 h [12] [µM] | MIC [15] [µg/mL] | MIC [16] [µg/mL] | MIC [19] [µg/mL] | other results
C=C[C@]1(C)C[C@@H](OC(=O)CSc2nc(-c3cc[n+](Cc4ccc(OC)cc4)cc3)cs2)[C@]2(C)[C@H](C)CC[C@]3(CCC(=O)[C@H]32)[C@@H](C)[C@@H]1O.[Br-] | 1 | 0.5 | 4 | 1 | 2 | 653 | 0.5 | 1 | 0.5 | CC50 at 48 h [1]: 87.4 µM; CC50 at 48 h [5]: 95.4 µM; MIC [7]: 32 µg/mL; MIC [8]: 8 µg/mL; CC50 at 48 h [9]: > 100 µM; MIC [10]: 16 µg/mL; MIC [13]: 64 µg/mL; MIC [14]: 2 µg/mL; MIC [17]: 16 µg/mL; MIC [18]: 4 µg/mL; MIC [20]: 8 µg/mL; MIC [21]: 64 µg/mL
C=C[C@]1(C)C[C@@H](OC(=O)CSc2nc(-c3cc[n+](Cc4ccc5ccccc5c4)cc3)cs2)[C@]2(C)[C@H](C)CC[C@]3(CCC(=O)[C@H]32)[C@@H](C)[C@@H]1O.[Br-] | 8 | 16 | 4 | 16 | 16 | 483 | 4 | 4 | 4 | 
C=C[C@]1(C)C[C@@H](OC(=O)CSc2nc(-c3cc[n+](Cc4cc(OC)cc(OC)c4)cc3)cs2)[C@]2(C)[C@H](C)CC[C@]3(CCC(=O)[C@H]32)[C@@H](C)[C@@H]1O.[Br-] | 8 | 32 | 128 | 64 | 8 | 912 | 128 | 128 | 16 | 
C=C[C@]1(C)C[C@@H](OC(=O)CSc2nc(-c3cc[n+](Cc4cc(F)cc(F)c4)cc3)cs2)[C@]2(C)[C@H](C)CC[C@]3(CCC(=O)[C@H]32)[C@@H](C)[C@@H]1O.[Br-] | 32 | 16 | 64 | 64 | 8 | 803 | 64 | 64 | 16 | 
C=C[C@]1(C)C[C@@H](OC(=O)CSc2nc(-c3cc[n+](Cc4ccc(F)cc4)cc3)cs2)[C@]2(C)[C@H](C)CC[C@]3(CCC(=O)[C@H]32)[C@@H](C)[C@@H]1O.[Br-] | 1 | 2 | 4 | 2 | 16 | 807 | 1 | 8 | 1 | 
C=C[C@]1(C)C[C@@H](OC(=O)CSc2nc(-c3cc[n+](Cc4ccc(-c5ccccc5)cc4)cc3)cs2)[C@]2(C)[C@H](C)CC[C@]3(CCC(=O)[C@H]32)[C@@H](C)[C@@H]1O.[Br-] | 1 | 1 | 2 | 2 | 2 | 271 | 0.5 | 1 | 2 | 
C=C[C@]1(C)C[C@@H](OC(=O)CSc2nc(-c3cc[n+](CCCCCCCCCCCCCCCC)cc3)cs2)[C@]2(C)[C@H](C)CC[C@]3(CCC(=O)[C@H]32)[C@@H](C)[C@@H]1O.[Br-] | > 128 | > 128 | > 128 | > 128 | > 128 | 187 | 64 | 64 | > 128 | 
C=C[C@]1(C)C[C@@H](OC(=O)CSc2nc(-c3cc[n+](Cc4ccc(C(C)(C)C)cc4)cc3)cs2)[C@]2(C)[C@H](C)CC[C@]3(CCC(=O)[C@H]32)[C@@H](C)[C@@H]1O.[Br-] | 2 | 2 | 2 | 1 | 2 | 306 | 0.25 | 2 | 2 | 
C=C[C@]1(C)C[C@@H](OC(=O)CSc2nc(-c3cc[n+](Cc4ccc(C#N)cc4)cc3)cs2)[C@]2(C)[C@H](C)CC[C@]3(CCC(=O)[C@H]32)[C@@H](C)[C@@H]1O.[Br-] | 8 | 2 | 16 | 64 | 32 | 683 | 0.125 | 2 | 32 | 
COc1c(N2C[C@@H]3CCCN[C@@H]3C2)c(F)cc2c(=O)c(C(=O)O)cn(C3CC3)c12 [MOXIFLOXACIN] | 0.25 (≈ 0.623 µM) | 0.125 (≈ 0.311 µM) | 0.5 (≈ 1.25 µM) | 1 (≈ 2.49 µM) | 2 (≈ 4.98 µM) |  | 0.062 (≈ 0.154 µM) | 0.25 (≈ 0.623 µM) | 2 (≈ 4.98 µM) | MIC [7]: 8 µg/mL (≈ 19.9 µM); MIC [8]: 2 µg/mL (≈ 4.98 µM); MIC [10]: 32 µg/mL (≈ 79.7 µM); MIC [13]: 16 µg/mL (≈ 39.9 µM); MIC [14]: 0.5 µg/mL (≈ 1.25 µM); MIC [17]: 4 µg/mL (≈ 9.96 µM); MIC [18]: 0.5 µg/mL (≈ 1.25 µM); MIC [20]: 32 µg/mL (≈ 79.7 µM); MIC [21]: 8 µg/mL (≈ 19.9 µM)
C=C[C@]1(C)C[C@@H](OC(=O)CSc2nc(-c3cc[n+](CCCC)cc3)cs2)[C@]2(C)[C@H](C)CC[C@]3(CCC(=O)[C@H]32)[C@@H](C)[C@@H]1O.[Br-] | 4 | 16 | 4 | 2 | 16 | 672 | 4 | 4 | 2 | 
C=C[C@]1(C)C[C@@H](OC(=O)CSc2nc(-c3cc[n+](Cc4ccc(C(F)(F)F)cc4)cc3)cs2)[C@]2(C)[C@H](C)CC[C@]3(CCC(=O)[C@H]32)[C@@H](C)[C@@H]1O.[Br-] | 2 | 1 | 2 | 2 | 2 | 899 | 0.25 | 4 | 2 | 
C=C[C@]1(C)C[C@@H](OC(=O)CSc2nc(-c3cc[n+](Cc4ccc(Br)cc4)cc3)cs2)[C@]2(C)[C@H](C)CC[C@]3(CCC(=O)[C@H]32)[C@@H](C)[C@@H]1O.[Br-] | 0.5 | 2 | 8 | 2 | 2 | 760 | 0.5 | 1 | 4 | 
C=C[C@]1(C)C[C@@H](OC(=O)CSc2nc(-c3cc[n+](Cc4cc(C)cc(C)c4)cc3)cs2)[C@]2(C)[C@H](C)CC[C@]3(CCC(=O)[C@H]32)[C@@H](C)[C@@H]1O.[Br-] | 32 | 32 | 128 | 64 | 8 | 543 | 128 | 128 | 16 | 
C=C[C@]1(C)C[C@@H](OC(=O)CSc2nc(-c3cc[n+](Cc4ccsc4)cc3)cs2)[C@]2(C)[C@H](C)CC[C@]3(CCC(=O)[C@H]32)[C@@H](C)[C@@H]1O.[Br-] | 0.5 | 1 | 1 | 1 | 8 | 702 | 0.25 | 0.5 | 2 | 
C=C[C@]1(C)C[C@@H](OC(=O)CSc2nc(-c3cc[n+](Cc4ccc(Cl)cc4)cc3)cs2)[C@]2(C)[C@H](C)CC[C@]3(CCC(=O)[C@H]32)[C@@H](C)[C@@H]1O.[Br-] | 1 | 0.5 | 8 | 2 | 2 | 649 | 0.125 | 2 | 2 | 
